# According to patent US11442059B2, “Method for treating a chronic itch condition by administering small molecule MrgprX4 antagonists” (The Johns Hopkins University, priority 2017, dated 2022):
# Key:
# human dendritic cells = assay: Calcium imaging of human dendritic cells; assay type: cell-based
# Description: In initial experiments, HEK293 cells were plated on 100 μg/ml poly-D-lysine coated glass cover slips, and transiently transfected with vector containing Mrgprs gene, after 24-48 hours of culture, cells were loaded with Fura 2-acetomethoxy ester calcium indicator (0.5 μM, Molecular Probes) along with pluronic F-127 dispersing agent (0.1%, Molecular Probes) for 30 minutes in the dark at 37° C., then washed with calcium imaging buffer (CIB; NaCl 125 mM, KCl 3 mM, CaCl2 2.5 mM, MgCl2 0.6 mM, HEPES 10 mM, glucose 20 mM, NaHCO3 1.2 mM, sucrose 20 mM, brought to pH 7.4 with NaOH). Drugs were added to Fura 2-loaded cells and intracellular free calcium was measured using 340 nm and 380 nm excitation wavelengths with emission measured at 520 nm with a microscope based imaging system (Nikon Eclipse TE200). Changes in emission fluorescence ratios at 340/380 nm excitation were continuously monitored at 1 second intervals. Later, experiments were performed using Mrgpra1-GFP, Mrgprc11-GFP and MRGPRX4-GFP stable cell lines to confirm the findings obtained from the transiently expressing cells.
# Human Peripheral Blood Dendritic Cells from four different donors were purchased from Lonza (cc-2701) and […] Technologies (70041). […]
# 129S1/SvImJ mice = assay: SJS/TEN mouse model (daily oral gavage of causative drug); assay type: in vivo; details: for TUNEL-positive dead epithelial cells in paw: LTG oral daily
# Description: Eight-to-ten week old male mice were orally gavaged with either causative drugs (LTG, allopurinol, oxcarbazepine) suspended in saline or saline once daily. The dosage was based on milligrams per kilogram of animal's body weight as indicated (for example, LTG 50 mg kg^−1 body weight). Skin, eyes, and mucosa, survival, body weight, physical and gross appearances (particularly on the eyes, mucosa and skins) were monitored every day.
# The animals were deeply anesthetized with pentobarbital and transcardially perfused with 20 ml 0.1 M cold PBS (pH 7.4) followed with 25 ml of cold 4% paraformaldehyde (PFA). Paw skin, eyelid, spleen, lymph nodes were dissected out. postfixed in 4% PFA for more than two hours, and cryoprotected in a 20% followed by 30% sucrose solution for 24 hours each at 4° C. Tissue samples were embedded in the optimal cutting temperature (OCT) and frozen before being serially cut into 20 μm sections and placed onto slides. Hematoxylin and eosin (H&E) staining was performed using standard procedures according to the manufacturer's instruction VITROVIEW™ H&E Stain Kit). To quantify amount of apoptotic cells, terminal deoxynucleotidyl transferase dUTP nick end labeling (TUNEL) assay, a method for detecting DNA fragmentation that results from apoptotic cells by labeling the terminal end of nucleic acids, was performed by following the protocol of Apo-BrdU DNA Fragmentation Assay Kit (Biovision). To estimate the total cell number in tissue, all nuclei were stained with propidium iodide. Digital photographs were captured under confocal fluorescent microscopy at x200 magnification (Zeiss LSM 700). The number of TUNEL-positive nuclei were counted and reported as a percentage over the number of total nuclei observed in the skin's epidermis layer.
# MRGPRX4-GFP = MRGPRX4-GFP (Homo sapiens, UniProt Q96LA9); assay: Receptor internalization assay, MRGPRX4-GFP HEK293 cells; assay type: cell-based; details: 37° C.
# Sequence of MRGPRX4-GFP (Q96LA9 whole entry, the tested form may be a part): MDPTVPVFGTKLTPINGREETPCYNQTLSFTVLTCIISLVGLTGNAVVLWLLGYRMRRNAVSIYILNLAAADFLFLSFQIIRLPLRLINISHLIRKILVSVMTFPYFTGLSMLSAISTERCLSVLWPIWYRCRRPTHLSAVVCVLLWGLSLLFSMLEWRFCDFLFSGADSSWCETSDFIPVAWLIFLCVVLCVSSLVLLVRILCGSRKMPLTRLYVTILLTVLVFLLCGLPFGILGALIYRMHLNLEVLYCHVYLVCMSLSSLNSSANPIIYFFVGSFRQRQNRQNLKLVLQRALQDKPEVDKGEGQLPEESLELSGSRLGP
# Description: To label the drug with red-fluorescent dye, […] of LTG was dissolved in 50 μl dimethyformamide (DMF) first, and further diluted with 450 μl reaction buffer (0.1M sodium bicarbonate buffer, pH9.0) to obtain LTG at a concentration of 7.8 mM. Then, 50 μl of Texas-red-conjugated sulfonyl chloride (Thermo Fisher Scientific, T1905) dissolved in DMF at 10 mg ml−1 was slowly added into LTG solution. The reaction was incubated at 4° C. for 1 hour with continuous stirring. The mixture was then diluted into cell culture medium for further use. LTG labeled with Texas Red dye can create bright red-fluorescence with excitation/emission maxima ˜595/615 nm. HEK293 cells stably expressing Mrgpra1-GFP, Mrgprc11-GFP or MRGPRX4-GFP fusion protein were grown in DMEM with 10% FBS. After 4-6 hours of serum starvation, cells were treated with either medium, dye alone, unlabeled LTG or Texas-Red-labeled LTG at 37° C. for 15 or 60 min. Cells were washed with PBS and fixed with 4% paraformaldehyde in PBS. The subcellular localization of Mrgpr-GFP or drug was visualized under a confocal fluorescence microscope with a 400× magnification (Zeiss LSM 700).
smiles,measurement,setting,value
"Nc1nnc(-c2cccc(Cl)c2Cl)c(N)n1 [LTG, Lamotrigine]",cells activated (Ca2+ imaging),human dendritic cells,about 5%
same,mortality rate,"129S1/SvImJ mice; LTG 50 mg kg−1 oral daily, by day 14, WT 129S1/SvImJ mice",60%
same,TUNEL-positive dead epithelial cells in paw,"129S1/SvImJ mice; day 9, HET mice",45.99±1.84%
same,TUNEL-positive dead epithelial cells in paw,"129S1/SvImJ mice; day 9, KO mice",6.10±1.63%
same,TUNEL-positive dead epithelial cells in paw,"129S1/SvImJ mice; day 9, WT mice",48.74±5.94%
same,survival,"129S1/SvImJ mice; day 14 of LTG treatment, KO group",no mouse died
same,mice survived,"129S1/SvImJ mice; day 14 of LTG treatment, WT and HET groups",30%
same,internalization of MRGPRX4-GFP,MRGPRX4-GFP,can induce the internalization
